Among the data in patent publication US20260256931A1, “CD276 ANTIBODY AND METHODS OF USE THEREOF” (priority 2023, published 2026) are IC50 values, retold here.

pIC50: −log10 of the molar value. Where a SMILES comes first, the peptide text is derived from it. [ ]: non-standard residue; d: D form. Dolaproine = CO[C@@H]([C@@H]1CCCN1)[C@@H](C)C(=O)O; Dil = CC[C@H](C)[C@H](NC)[C@@H](CC(=O)O)OC; NMeV = CN[C@H](C(=O)O)C(C)C

Assay type in all cases: cell-based
For one assay, the system named is MDA-MB-468. The experiment in a line: In vitro cytotoxicity assay (MTT), MDA-MB-468. The note with it: Homo sapiens, 120 h, MDA-MB-468, five days. As for the experimental part:
(§1) The human and mouse TNBC cells were seeded in 96-well plates with a density of 10,000 cells/well for MDA-MB-468, 1,000 cells/well for MDA-MB-231 and 500 cells/well for 4T1. The free MMAF, mAb-MMAF and mAb-MMAF/IMQ were added into each well to reach the final dosages of 0-300 or 400 nM. Higher concentrations, i.e. 0-20 μM, of free IMQ and mAb-IMQ, were tested. The treated cells were incubated at 37° C. and 5% CO2 for five days and the cell viability was analyzed using MTT Cell Proliferation Assay kit.

The subject of another assay is 4T1. Put plainly: In vitro cytotoxicity assay (MTT), 4T1. As to conditions: Mus musculus, 4T1, 120 h. As for the experimental part: as §1
In another assay the test system is MDA-MB-231. The experiment in a line: In vitro cytotoxicity assay (MTT), MDA-MB-231. The note with it: Homo sapiens, MDA-MB-231, 120 h. As for the experimental part: as §1

As to `CC[C@H](C)[C@@H]([C@@H](CC(=O)N1CCC[C@H]1[C@H](OC)[C@@H](C)C(=O)N[C@@H](Cc1ccccc1)C(=O)O)OC)N(C)C(=O)[C@@H](NC(=O)[C@@H](NC)C(C)C)C(C)C` [MMAF, Monomethyl auristatin F] (H-[NMeV]V[Dil][Dolaproine]F-OH), the negative-log IC50 (pIC50) with MDA-MB-468 was 6.84; in the assay with 4T1, 6.98; in the assay with MDA-MB-231, 6.82.

Usually pIC50 stands for the IC50 on a negative log10 scale, so that one unit is a factor of ten. Lower therefore signals a high IC50.
